Data as given in ChEMBL document CHEMBL3632504, “Discovery of 1H-pyrazolo[3,4-b]pyridines as potent dual orexin receptor antagonists (DORAs)” (Bioorg Med Chem Lett, 2015).
≈ marks a conversion by molar mass, not a printed value.

Tests used:
[1] = Octanol/water partition coefficient, logP of the compound; assay type: physicochemical
[2] = Equilibrium solubility of the compound at pH 6.8; assay type: physicochemical; conditions: buffer
[3] = molecular target: T1, Orexin/Hypocretin receptor type 1 (Homo sapiens, UniProt O43613); test: Displacement of [125l]orexin A from human orexin 1 receptor expressed in CHO cells after 1 hr; assay type: cell-based
T1 sequence (O43613 whole entry): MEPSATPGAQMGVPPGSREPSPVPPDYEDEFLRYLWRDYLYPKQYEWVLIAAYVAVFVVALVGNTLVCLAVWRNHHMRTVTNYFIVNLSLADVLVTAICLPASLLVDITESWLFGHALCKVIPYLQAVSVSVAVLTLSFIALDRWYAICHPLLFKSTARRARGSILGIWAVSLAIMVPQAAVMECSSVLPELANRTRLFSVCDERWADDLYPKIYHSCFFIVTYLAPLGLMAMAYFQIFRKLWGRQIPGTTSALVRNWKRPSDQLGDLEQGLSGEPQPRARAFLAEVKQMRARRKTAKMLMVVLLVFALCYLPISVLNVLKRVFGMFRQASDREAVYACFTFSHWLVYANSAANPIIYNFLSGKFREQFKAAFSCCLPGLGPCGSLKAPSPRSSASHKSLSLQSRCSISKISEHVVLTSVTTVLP

[4] = molecular target: T1, Orexin/Hypocretin receptor type 1
Description: Antagonist activity against human orexin 1 receptor after 1 hr by Ca2+ sensitive Fluo4-AM fluorescent dye-based FLIPR assay

Homo sapiens = organism: Homo sapiens; test: Selectivity ratio of Ki for human orexin 1 receptor to Ki for human orexin 2 receptor
Orexin receptor type 2 [5] = molecular target: T2, Orexin receptor type 2 (Homo sapiens, UniProt O43614); test: Displacement of [125l]orexin A from human orexin 2 receptor expressed in CHO cells after 1 hr; assay type: cell-based
T2 sequence (O43614 whole entry): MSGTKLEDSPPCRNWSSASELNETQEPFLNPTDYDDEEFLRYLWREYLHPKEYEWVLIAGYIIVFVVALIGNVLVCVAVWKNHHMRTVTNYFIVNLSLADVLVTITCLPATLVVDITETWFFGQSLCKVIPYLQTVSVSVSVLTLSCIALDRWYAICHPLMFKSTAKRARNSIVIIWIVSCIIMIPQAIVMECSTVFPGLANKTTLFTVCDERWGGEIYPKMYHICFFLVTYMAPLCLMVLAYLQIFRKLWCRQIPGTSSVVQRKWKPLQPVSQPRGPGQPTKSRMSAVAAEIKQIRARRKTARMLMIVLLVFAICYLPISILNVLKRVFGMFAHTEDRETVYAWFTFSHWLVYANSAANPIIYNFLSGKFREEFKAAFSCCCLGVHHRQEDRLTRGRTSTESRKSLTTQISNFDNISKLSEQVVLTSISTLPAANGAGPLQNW

Orexin receptor type 2 [6] = molecular target: T2, Orexin receptor type 2; test: Antagonist activity against human orexin 2 receptor after 1 hr by Ca2+ sensitive Fluo4-AM fluorescent dye-based FLIPR assay; assay type: functional
[7] = Intrinsic clearance in rat liver microsomes; assay type: ADME; conditions: read-out: CLH
Mus musculus [8] = organism: Mus musculus; test: Drug metabolism in mouse assessed as oxidation at phenyl ring in 3-position of core moiety; assay type: ADME, organism-based; conditions: in vivo
Liver microsome [9] = test: Drug metabolism in human liver microsomes assessed as oxidation at phenyl ring in 3-position of core moiety; assay type: ADME
Mus musculus [10] = organism: Mus musculus; test: Drug metabolism in mouse assessed as oxidation at benzylic position of amide; assay type: ADME, organism-based; conditions: in vivo
Liver microsome [11] = test: Drug metabolism in human liver microsomes assessed as oxidation at benzylic position of amide; assay type: ADME
[12] = Drug metabolism in mouse liver microsomes assessed as oxidation at phenyl ring in 3-position of core moiety; assay type: ADME
[13] = Drug metabolism in mouse liver microsomes assessed as oxidation at benzylic position of amide; assay type: ADME
[14] = Plasma protein binding in mouse; assay type: ADME; conditions: read-out: PPB
[15] = Intrinsic clearance in human liver microsomes; assay type: ADME; conditions: read-out: CLH
Cytochrome P450 2D6 = Cytochrome P450 2D6 (Homo sapiens, UniProt P10635); test: Inhibition of CYP2D6 (unknown origin); assay type: ADME
[16] = Terminal half life in mouse at 1 mg/kg, iv administered through cassette dosing; assay type: ADME, organism-based; conditions: in vivo, read-out: beta t1/2 (converted)
[17] = Plasma protein binding in human; assay type: ADME, cell-free; conditions: read-out: PPB (converted)
[18] = Oral bioavailability in mouse at 3 mg/kg administered through cassette dosing; assay type: ADME, organism-based; conditions: in vivo
Plasma = test: Fraction unbound in mouse plasma; assay type: ADME, cell-free
Cytochrome P450 3A4 = Cytochrome P450 3A4 (Homo sapiens, UniProt P08684); test: Inhibition of CYP3A4 (unknown origin); assay type: ADME
Blood [19] = test: Dose-normalized AUC in mouse blood at 3 mg/kg, po administered through cassette dosing; assay type: ADME, organism-based; conditions: in vivo
Blood [20] = test: Dose-normalized Cmax in mouse blood at 3 mg/kg, po administered through cassette dosing; assay type: ADME, organism-based; conditions: in vivo
[21] = Permeability of the compound by PAMPA; assay type: physicochemical
[22] = Intrinsic clearance in mouse liver microsomes; assay type: ADME; conditions: read-out: CLH
Cytochrome P450 2C9 = Cytochrome P450 2C9 (Homo sapiens, UniProt P11712); test: Inhibition of CYP2C9 (unknown origin); assay type: ADME
[23] = Volume of distribution at steady state in mouse at 1 mg/kg, iv administered through cassette dosing; assay type: ADME, organism-based; conditions: in vivo, read-out: Vdss
[24] = Blood clearance in mouse at 1 mg/kg, iv administered through cassette dosing; assay type: ADME, organism-based
in vivo = conditions: mouse, brain / blood, po, 3 mg/kg
Description: Ratio of drug level in brain to blood in mouse at 3 mg/kg, po at 1 hr post dose administered through cassette dosing

[25] = molecular target: Voltage-gated inwardly rectifying potassium channel KCNH2 (Homo sapiens, UniProt Q12809); test: Binding affinity to human ERG
MDR1 = test: Efflux ratio of permeability from basolateral to apical side over apical to basolateral side in MDCK cells expressing MDR1; assay type: ADME, cell-based, Canis lupus familiaris; conditions: dog

Cytochrome P450 2D6, sequence (P10635 whole entry): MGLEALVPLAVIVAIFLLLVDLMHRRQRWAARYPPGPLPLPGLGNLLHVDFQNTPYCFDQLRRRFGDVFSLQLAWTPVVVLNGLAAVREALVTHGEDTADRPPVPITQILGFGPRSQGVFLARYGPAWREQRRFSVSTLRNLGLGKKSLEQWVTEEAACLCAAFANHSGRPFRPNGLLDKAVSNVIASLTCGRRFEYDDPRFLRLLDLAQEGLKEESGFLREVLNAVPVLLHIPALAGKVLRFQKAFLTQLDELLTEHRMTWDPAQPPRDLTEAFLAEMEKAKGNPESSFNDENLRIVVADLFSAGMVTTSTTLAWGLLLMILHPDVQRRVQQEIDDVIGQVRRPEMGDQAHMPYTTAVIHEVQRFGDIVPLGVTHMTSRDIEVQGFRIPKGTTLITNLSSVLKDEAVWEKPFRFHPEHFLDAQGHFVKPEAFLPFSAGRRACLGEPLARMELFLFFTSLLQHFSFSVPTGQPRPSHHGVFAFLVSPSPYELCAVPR
Cytochrome P450 3A4, sequence (P08684 whole entry): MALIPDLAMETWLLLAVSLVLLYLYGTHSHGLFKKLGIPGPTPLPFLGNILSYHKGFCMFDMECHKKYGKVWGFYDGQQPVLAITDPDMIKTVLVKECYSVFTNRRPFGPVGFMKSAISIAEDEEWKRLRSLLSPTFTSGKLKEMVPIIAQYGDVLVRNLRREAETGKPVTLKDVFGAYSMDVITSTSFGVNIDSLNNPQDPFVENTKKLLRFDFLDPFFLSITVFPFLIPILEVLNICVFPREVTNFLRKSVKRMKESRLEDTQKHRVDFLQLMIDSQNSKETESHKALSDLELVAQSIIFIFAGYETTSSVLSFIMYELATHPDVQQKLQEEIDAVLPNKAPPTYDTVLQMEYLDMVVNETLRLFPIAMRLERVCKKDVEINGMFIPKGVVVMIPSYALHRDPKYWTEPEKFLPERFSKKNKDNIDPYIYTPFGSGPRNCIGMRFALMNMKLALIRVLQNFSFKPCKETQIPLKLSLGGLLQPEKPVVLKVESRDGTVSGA
Cytochrome P450 2C9, sequence (P11712 whole entry): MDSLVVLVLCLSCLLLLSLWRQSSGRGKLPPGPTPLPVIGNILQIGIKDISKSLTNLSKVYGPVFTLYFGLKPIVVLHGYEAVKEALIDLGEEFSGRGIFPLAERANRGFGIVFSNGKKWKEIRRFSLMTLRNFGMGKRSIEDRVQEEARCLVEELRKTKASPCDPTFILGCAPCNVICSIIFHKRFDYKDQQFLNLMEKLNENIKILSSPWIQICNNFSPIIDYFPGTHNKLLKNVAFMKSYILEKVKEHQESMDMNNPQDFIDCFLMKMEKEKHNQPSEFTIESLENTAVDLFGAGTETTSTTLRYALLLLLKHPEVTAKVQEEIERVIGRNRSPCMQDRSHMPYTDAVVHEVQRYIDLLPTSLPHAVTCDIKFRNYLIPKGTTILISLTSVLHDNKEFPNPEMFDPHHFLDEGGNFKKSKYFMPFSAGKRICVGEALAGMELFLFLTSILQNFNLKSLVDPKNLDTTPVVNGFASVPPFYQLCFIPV
Voltage-gated inwardly rectifying potassium channel KCNH2, sequence (Q12809 whole entry): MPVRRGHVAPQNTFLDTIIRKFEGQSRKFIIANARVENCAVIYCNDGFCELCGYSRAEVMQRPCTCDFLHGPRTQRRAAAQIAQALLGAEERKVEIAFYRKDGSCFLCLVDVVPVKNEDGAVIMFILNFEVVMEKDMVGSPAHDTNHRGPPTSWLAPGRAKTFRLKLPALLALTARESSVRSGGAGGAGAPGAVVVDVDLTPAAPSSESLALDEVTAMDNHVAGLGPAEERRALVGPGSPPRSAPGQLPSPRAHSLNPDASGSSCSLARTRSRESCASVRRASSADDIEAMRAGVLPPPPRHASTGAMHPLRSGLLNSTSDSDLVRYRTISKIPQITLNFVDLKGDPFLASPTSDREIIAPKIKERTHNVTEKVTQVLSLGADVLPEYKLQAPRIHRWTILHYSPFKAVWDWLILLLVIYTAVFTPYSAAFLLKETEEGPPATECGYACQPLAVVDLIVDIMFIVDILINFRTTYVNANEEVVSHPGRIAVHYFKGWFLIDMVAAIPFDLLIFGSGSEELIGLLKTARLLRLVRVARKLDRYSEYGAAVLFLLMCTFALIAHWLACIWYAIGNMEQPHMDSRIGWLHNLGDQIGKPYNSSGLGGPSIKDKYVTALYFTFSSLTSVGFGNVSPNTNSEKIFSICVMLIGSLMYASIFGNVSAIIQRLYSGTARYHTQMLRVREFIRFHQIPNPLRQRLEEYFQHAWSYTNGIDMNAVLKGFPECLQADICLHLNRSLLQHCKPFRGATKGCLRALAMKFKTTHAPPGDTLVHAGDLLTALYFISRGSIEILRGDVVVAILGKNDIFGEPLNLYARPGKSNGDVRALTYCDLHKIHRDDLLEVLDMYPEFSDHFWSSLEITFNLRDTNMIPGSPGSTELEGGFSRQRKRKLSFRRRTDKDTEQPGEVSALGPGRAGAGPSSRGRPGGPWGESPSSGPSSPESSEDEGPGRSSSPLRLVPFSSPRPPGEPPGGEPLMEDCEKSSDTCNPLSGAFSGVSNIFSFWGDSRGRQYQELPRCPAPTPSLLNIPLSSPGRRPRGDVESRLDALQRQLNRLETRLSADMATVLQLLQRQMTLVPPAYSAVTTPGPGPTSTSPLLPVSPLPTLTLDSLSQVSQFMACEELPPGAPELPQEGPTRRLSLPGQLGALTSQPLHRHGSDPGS

Cc1nn(C)c(C)c1C(C)NC(=O)COc1cc(C(F)F)c2c(-c3ccccc3)nn(C)c2n1 (racemic)
logP [1]: 3.9 | solubility thermodynamic [2]: 248 µM (≈ 116 µg/mL)

CC(NC(=O)COc1cc(C(F)(F)F)c2c(-c3ccccc3)nn(C)c2n1)c1ccccc1 (racemic)
Ki [3]: 88 nM | Ki [4]: 120 nM | Ratio Ki (Homo sapiens): 1.54 | Ki (Orexin receptor type 2 [5]): 168 nM | Ki (Orexin receptor type 2 [6]; read-out: Ki): 78 nM

Cc1nn(C)c(C)c1C(C)NC(=O)COc1cc(C(F)F)c2c(C3CC3)nn(C)c2n1 (racemic)
microsomal CLint [7]: 660 µL/min/mg | logP [1]: 2.8 | solubility thermodynamic [2]: 657 µM (≈ 284 µg/mL)

Cc1ccc([C@H](C)NC(=O)COc2cc(C)c3c(-c4ncccn4)nn(C)c3n2)cc1
Ki (Orexin receptor type 2 [6]; read-out: Ki): 5 nM | logP [1]: 3.3 | solubility thermodynamic [2]: 43 µM (≈ 17.9 µg/mL)

COc1ccc(C(C)NC(=O)COc2cc(C(F)(F)F)c3c(-c4ccccc4)nn(C)c3n2)cc1 (racemic)
Ratio Ki (Homo sapiens): 14.5

Cc1cc2c(cn1)[C@@H](NC(=O)COc1cc(C)c3c(C4CC4)nn(C)c3n1)CC2
microsomal CLint [7]: 924 µL/min/mg | logP [1]: 3.5 | solubility thermodynamic [2]: 25 µM (≈ 9.79 µg/mL)

COc1ccccc1C(C)NC(=O)COc1cc(C(F)(F)F)c2c(-c3ccccc3)nn(C)c2n1 (racemic)
Ratio Ki (Homo sapiens): 1.73

Cc1ccc([C@H](C)NC(=O)COc2cc(C)c3c(-c4cnccn4)nn(C)c3n2)cc1
logP [1]: 3.9 | solubility thermodynamic [2]: 115 µM (≈ 47.9 µg/mL)

C[C@H](NC(=O)CNc1cc(C(F)(F)F)c2c(-c3ccccc3)nn(C)c2n1)c1ccccc1
Ratio Ki (Homo sapiens): 0.31

C[C@H](NC(=O)COc1cc(C(F)(F)F)c2c(-c3ccccc3)nn(C)c2n1)c1ccccc1
Drug metabolism (Mus musculus [8]): metabolite_detected | Drug metabolism (Liver microsome [9]): metabolite_detected | Drug metabolism (Mus musculus [10]): metabolite_detected | Drug metabolism (Liver microsome [11]): metabolite_detected | Ratio Ki (Homo sapiens): 1.62 | Drug metabolism [12]: metabolite_detected | logP [1]: 4.7 | solubility thermodynamic [2]: < 4 µM | Drug metabolism [13]: metabolite_detected

COc1cccc(C(C)NC(=O)COc2cc(C(F)(F)F)c3c(-c4ccccc4)nn(C)c3n2)c1 (racemic)
Ratio Ki (Homo sapiens): 0.77

C[C@H](NC(=O)COc1cc(C(F)(F)F)c2c(-c3ccccc3)n[nH]c2n1)c1ccccc1
Ratio Ki (Homo sapiens): 4.65

COc1ccc(CNC(=O)COc2cc(C(F)(F)F)c3c(-c4ccccc4)nn(C)c3n2)cc1
Ratio Ki (Homo sapiens): 9.64

C[C@H](NC(=O)COc1cc(C(F)(F)F)c2c(-c3ccccn3)nn(C)c2n1)c1ccccc1
microsomal CLint [7]: 924 µL/min/mg | Ki [4]: 660 nM | Ki (Orexin receptor type 2 [6]; read-out: Ki): 367 nM | logP [1]: 3.5 | solubility thermodynamic [2]: 40 µM (≈ 18.2 µg/mL)

Cc1n[nH]c(C)c1[C@H](C)NC(=O)COc1cc(C(F)(F)F)c2c(-c3ccccc3)nn(C)c2n1
fraction unbound [14]: < 0.01 | microsomal CLint [15]: 433 µL/min/mg | IC50 (Cytochrome P450 2D6): > 20000 nM | half-life [16]: 30 min | fraction unbound [17]: 0.04 | microsomal CLint [7]: 603 µL/min/mg | bioavailability [18]: 21% | Fu (Plasma): < 1% | IC50 (Cytochrome P450 3A4): > 20000 nM | AUC/dose (Blood [19]): 371 nM·h | Cmax/dose (Blood [20]): 300 nM | log(permeability) [21]: -4.1 | logP [1]: 4.2 | microsomal CLint [22]: 330 µL/min/mg | solubility thermodynamic [2]: < 4 µM | IC50 (Cytochrome P450 2C9): > 20000 nM | Vd [23]: 0.5 L/kg | clearance [24]: 20 mL/min/kg

Cc1ccc2c(n1)CC[C@@H]2NC(=O)COc1cc(C)c2c(C3CC3)nn(C)c2n1
Kp at 1 h (in vivo): 0.13 | half-life [16]: 18 min | bioavailability [18]: 16% | AUC/dose (Blood [19]): 106 nM·h | Cmax/dose (Blood [20]): 115 nM | Ratio Ki (Homo sapiens): 4.95 | Vd [23]: 0.4 L/kg | clearance [24]: 66 mL/min/kg

CC(NC(=O)COc1cc(C(F)(F)F)c2c(-c3ccccc3)nn(C)c2n1)c1cccnc1 (racemic)
Ratio Ki (Homo sapiens): 1.67

Cc1nn(C)c(C)c1[C@H](C)NC(=O)COc1cc(C(F)(F)F)c2c(-c3ccccc3)nn(C)c2n1
Ki [4]: 7 nM | Ratio Ki (Homo sapiens): 0.7 | Ki (Orexin receptor type 2 [6]; read-out: Ki): 10 nM

CC(NC(=O)COc1cc(C(F)(F)F)c2c(-c3ccccc3)nn(C)c2n1)c1ccccn1 (racemic)
Ki (Orexin receptor type 2 [6]): Not Active

COc1ccc([C@@H](C)NC(=O)COc2cc(C(F)(F)F)c3c(-c4ccccc4)nn(C)c3n2)cc1
Ratio Ki (Homo sapiens): 2.41

COc1ccc([C@H](C)NC(=O)COc2cc(C(F)(F)F)c3c(-c4ccccc4)nn(C)c3n2)cc1
Kp at 1 h (in vivo): 1.15 | fraction unbound [14]: < 0.01 | microsomal CLint [15]: 190 µL/min/mg | IC50 (Cytochrome P450 2D6): > 20000 nM | half-life [16]: 66 min | fraction unbound [17]: < 0.01 | IC50 [25]: > 30000 nM | Ki [3]: 8 nM | microsomal CLint [7]: 147 µL/min/mg | efflux ratio (MDR1): 1 | bioavailability [18]: 3% | Fu (Plasma): < 1% | IC50 (Cytochrome P450 3A4): 8000 nM | AUC/dose (Blood [19]): 17 nM·h | Cmax/dose (Blood [20]): 4 nM | Ratio Ki (Homo sapiens): 7 | Ki (Orexin receptor type 2 [5]): 4 nM | log(permeability) [21]: -4 | logP [1]: 4.6 | microsomal CLint [22]: 478 µL/min/mg | solubility thermodynamic [2]: < 4 µM | IC50 (Cytochrome P450 2C9): 5000 nM | Vd [23]: 2 L/kg | clearance [24]: 65 mL/min/kg
